Data: PubChem BioAssay (NCI)
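Tested at 5 concentrations; 48 h exposure; 96-well plates; endpoints linearly interpolated, else capped at highest concentration. GI50 = concentration required for 50% inhibition of growth. The concentration for full growth arrest is given as TGI.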

System: MDA-MB-468 breast
Test: growth of human tumour cells (NCI), 48 h

SMILES | GI50 [nM] | TGI [nM]
COc1cc(C(=O)c2cnc(-c3c[nH]c4cccc(C)c34)[nH]2)cc(OC)c1OC | 2.64 | –
Cc1ccc(S(=O)(=O)OC[C@@]2(C)CC[C@]3(C)CC[C@]4(C)C(=C3C2)C=C[C@@H]2[C@@]3(C)CCCNC(C)(C)[C@@H]3CC[C@]24C)cc1 | 1590 | 3220
CC(=O)c1cc2c(N)c(C(=O)Nc3cccc4ccccc34)sc2nc1C | 1640 | 31100
Nc1ccc(CC[C@H]2CCC/C=C/[C@@H]3C[C@H](O)C[C@H]3[C@H](O)/C=C/C(=O)O2)cc1 | 10.6 | 37.4
Nc1ncn([C@H]2CC(O)[C@@H](CO)S2)c(=O)n1 (stereo not given in full) | 5800 | > 100000
COc1cc2ncn(-c3cc(OCc4ccccc4C(F)(F)F)c(C(N)=O)s3)c2cc1OC | 61.9 | 857
[O]=[Sn]([CH]1CCCCC1)[CH]1CCCCC1 | 97.7 | 250
Clc1ccc2c(NCCNc3nc(N4CCOCC4)nc4ccccc34)ccnc2c1 | 1910 | 4530
CN1CCCCC1CCN1c2ccccc2Sc2ccc(Br)cc21 (stereo not given) | 1780 | 3650
CC1(C)N=C(N)N=C(N)N1c1ccc(CCCC(=O)Nc2ccc(S(=O)(=O)F)cc2)cc1 | 3330 | > 100000
COc1ccc2nc3ccccc3c(NCCNCCO)c2c1 | 351 | 1370
[Br][Pb]([c]1ccccc1)([c]1ccccc1)[c]1ccccc1 | 148 | 294
NC(=NCCCCCCN=C(N)/N=C(\N)Nc1ccc(Cl)cc1)/N=C(\N)Nc1ccc(Cl)cc1 | 952 | 2280
CC[C@H](C)[C@H](NC(=O)C12C3C4C1C1C2C3C41NC)C(=O)N(C)[C@H](C[C@@H](OC(C)=O)c1nc(C(=O)N[C@@H](Cc2ccccc2)C[C@H](C)C(=O)OC)cs1)C(C)C (stereo not given in full) | 217 | > 5490
COc1cc(-c2nc(-c3ccccc3)c(-c3ccccc3)[nH]2)cc(OC)c1O | 15200 | 37700
COc1cc(N=Nc2cc(Cc3ccc(N(C)C)cc3)c(N)cc2N(C)C)c2ncccc2c1 | 226 | 622
O=C1C(Cl)=C(Nc2ccc(S(=O)(=O)c3ccc(NC4=C(Cl)C(=O)c5ccccc5C4=O)cc3)cc2)C(=O)c2ccccc21 | 1500 | 3090
O=c1c(I)c[nH]cc1I | > 100000 | > 100000
Cc1ccc(NCCNCC(C)(C)O)c2c(=O)c3ccc(Cl)cc3sc12 | 1700 | 3240

SMILES | GI50 [nM] | TGI [nM]
CC1(C)CC(O)CC(C)(C)N1O | > 100000 | > 100000
COc1cccc(C2CC(=O)Nc3c2c(C)nn3-c2nc3ccccc3[nH]2)c1OC (stereo not given) | 4110 | 32600
Cc1cc(NC(=O)NCc2ccc(N3C(N)=NC(N)=NC3(C)C)cc2)ccc1S(=O)(=O)F | 7990 | > 100000
N[C@@H]1CCCN(c2c(Br)cnc3[nH]cc(NC(=O)C4CC4)c23)C1 | 2110 | 36200
CNC(=O)CCN1CCN(CC/C=C2\c3ccccc3Sc3ccc(Cl)cc32)CC1 | 3630 | 16900
Cc1ccc(-c2nc(NCCOCCOCCN)nc(N3CCN(c4ccccn4)CC3)n2)cc1 | 7040 | 18000
CN1C2C=CC(=O)C1C1C(=O)N(c3ccccc3)C(=O)C12 (stereo not given) | 2450 | 9030
Cc1cc(N2CCC(N3CCCC3)CC2)nc(/N=C(\N)Nc2ccc(Cl)c(Cl)c2)n1 | 1400 | 2730
CCN(CC)c1ccc(/C=N/NC(=O)Cc2ccc(Nc3ccnc(C(F)(F)F)c3)cc2)c(O)c1 | 588 | > 60300
CN(C)CCCN1c2ccccc2Sc2ccc(C(F)(F)F)cc21 | 1250 | 2650
Nc1nc(SCc2ccccc2CCl)c2[nH]cnc2n1 | 11900 | 30800
CCCCNc1ncnc2c1cnn2-c1ccccc1 | 2240 | 7600
COc1cc2c(c(OC)c1OC)-c1cc(I)c(O)cc1[C@@H](NC(C)=O)CC2 | 24.3 | 71.5
CCn1cc(C(=O)O)c(=O)c2cc(F)c(N3CCN(S(=O)(=O)c4ccc(Cl)cc4Cl)CC3)cc21 | 1980 | 5500
COC(=O)c1c(C)nc(C)c2c1C(=O)C(Br)=C(NCc1ccccc1)C2=O | 1110 | 2750
O=C(/C=C/c1ccc(O)c(O)c1)N1CCN(c2ccc(Cl)cc2)CC1 | 2450 | 13000
CCN(CC)CCOC(COc1cc(C)cc(C)c1)COc1cc(C)cc(C)c1 | 1740 | 3550
CCn1c(-c2nonc2N)nc2ccccc21 | > 14900 | > 25000
CCCCCCCCCCCC1N=C(N)N=C(N)N1c1cccc(Br)c1 (stereo not given) | 528 | 1980
